Measured values: patent US12540131B2 (Merck Sharp & Dohme LLC, priority 2019, dated 2026)

Target: GST tagged truncated human mutant G2019S LRRK2 (Homo sapiens (Human), UniProt Q5S007, G2019S)
Test: LRRK2 Km ATP LanthaScreen Assay
Type: biochemical
Conditions: G2019S LRRK2, 134 μM ATP (Km ATP), mean values
In short: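 Enzyme (GST-tagged, truncated) was preincubated with compound for 15 min at RT in 50 mM Tris pH 8.5, 10 mM MgCl2, 0.01% Brij-35, 1 mM EGTA, 2 mM DTT and 0.05 mM orthovanadate. Fluorescein-LRRKtide and 134 μM ATP (Km) were then added for 90 min. EDTA and Tb-anti-pERM antibody stopped the reaction; the TR-FRET 520/495 ratio gave 4-parameter IC50s, reported as mean pIC50.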

GST tagged truncated human mutant G2019S LRRK2, sequence (Q5S007 970-2527 G2019S): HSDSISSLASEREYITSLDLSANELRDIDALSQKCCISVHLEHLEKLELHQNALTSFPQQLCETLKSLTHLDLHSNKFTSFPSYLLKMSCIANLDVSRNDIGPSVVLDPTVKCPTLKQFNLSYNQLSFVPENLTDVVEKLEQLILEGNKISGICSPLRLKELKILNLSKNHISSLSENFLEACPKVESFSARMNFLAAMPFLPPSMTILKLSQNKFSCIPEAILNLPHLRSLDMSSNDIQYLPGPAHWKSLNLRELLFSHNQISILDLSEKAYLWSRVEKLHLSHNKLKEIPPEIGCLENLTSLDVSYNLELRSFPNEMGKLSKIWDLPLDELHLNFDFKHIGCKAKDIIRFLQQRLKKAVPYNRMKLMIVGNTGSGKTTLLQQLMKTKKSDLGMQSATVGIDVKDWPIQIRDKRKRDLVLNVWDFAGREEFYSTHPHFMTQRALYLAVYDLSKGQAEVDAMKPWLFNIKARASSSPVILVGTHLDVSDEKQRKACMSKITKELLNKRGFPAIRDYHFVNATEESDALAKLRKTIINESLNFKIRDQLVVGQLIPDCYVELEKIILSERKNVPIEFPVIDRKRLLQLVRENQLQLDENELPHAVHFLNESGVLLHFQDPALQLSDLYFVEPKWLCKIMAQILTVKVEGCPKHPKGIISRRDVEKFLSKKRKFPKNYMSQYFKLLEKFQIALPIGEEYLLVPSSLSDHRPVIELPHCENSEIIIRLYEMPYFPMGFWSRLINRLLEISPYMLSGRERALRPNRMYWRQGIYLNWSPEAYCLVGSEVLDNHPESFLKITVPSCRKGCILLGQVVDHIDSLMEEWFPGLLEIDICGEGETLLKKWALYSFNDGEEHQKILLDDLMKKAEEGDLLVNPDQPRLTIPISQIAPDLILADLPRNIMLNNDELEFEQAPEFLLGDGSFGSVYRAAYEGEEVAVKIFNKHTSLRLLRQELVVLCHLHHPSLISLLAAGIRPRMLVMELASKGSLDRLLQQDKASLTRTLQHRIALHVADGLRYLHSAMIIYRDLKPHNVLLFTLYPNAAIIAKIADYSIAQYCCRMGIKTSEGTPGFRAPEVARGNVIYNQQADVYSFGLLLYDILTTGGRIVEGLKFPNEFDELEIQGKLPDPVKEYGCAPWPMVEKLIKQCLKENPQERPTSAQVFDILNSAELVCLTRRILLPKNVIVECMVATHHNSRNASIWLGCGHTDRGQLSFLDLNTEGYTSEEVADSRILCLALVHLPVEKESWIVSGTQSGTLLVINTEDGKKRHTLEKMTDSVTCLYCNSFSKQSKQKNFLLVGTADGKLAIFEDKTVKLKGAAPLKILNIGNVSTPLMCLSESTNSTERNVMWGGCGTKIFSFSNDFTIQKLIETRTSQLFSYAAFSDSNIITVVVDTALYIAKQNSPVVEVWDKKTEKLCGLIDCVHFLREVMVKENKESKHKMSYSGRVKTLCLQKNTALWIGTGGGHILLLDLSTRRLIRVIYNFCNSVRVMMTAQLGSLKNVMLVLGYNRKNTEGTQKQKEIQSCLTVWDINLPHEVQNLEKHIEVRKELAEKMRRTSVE

| Compound | LRRK2 pIC50 |
| --- | --- |
| Cn1ncc(Nc2ncc3cc(Cl)c([C@@H]4CCN([C@H]5COC[C@H]5O)C[C@H]4F)cc3n2)c1C1CC1 (single isomer, unassigned) [Ex-4.240, (3S,4S)(3S,4S) or (3S,4S)(3R,4R) or (3R,4R)(3S,4S) or (3R,4R)(3R,4R) 4-(4-{6-chloro-2-[(5-cyclopropyl-1-methyl-1H-pyrazol-4-yl)amino]quinazolin-7-yl}-3-fluoropiperidin-1-yl)oxolan-3-ol] | 7.57 |
| Cn1ncc(Nc2ncc3cc(Cl)c([C@H]4CCN([C@@H]5COC[C@@H]5O)C[C@@H]4F)cc3n2)c1C1CC1 (single isomer, unassigned) [Ex-4.241, (3S,4S)(3S,4S) or (3S,4S)(3R,4R) or (3R,4R)(3S,4S) or (3R,4R)(3R,4R) 4-(4-{6-chloro-2-[(5-cyclopropyl-1-methyl-1H-pyrazol-4-yl)amino]quinazolin-7-yl}-3-fluoropiperidin-1-yl)oxolan-3-ol] | >9.20 |
| Cn1ncc(Nc2ncc3cc(Cl)c([C@H]4CCN([C@H]5COC[C@H]5O)C[C@@H]4F)cc3n2)c1C1CC1 (single isomer, unassigned) [Ex-4.242, (3S,4S)(3S,4S) or (3S,4S)(3R,4R) or (3R,4R)(3S,4S) or (3R,4R)(3R,4R) 4-(4-{6-chloro-2-[(5-cyclopropyl-1-methyl-1H-pyrazol-4-yl)amino]quinazolin-7-yl}-3-fluoropiperidin-1-yl)oxolan-3-ol] | 7.67 |
| Cc1cc2cnc(Nc3cnn(C4CC4)c3Cl)nc2cc1C1CCN([C@@H]2COC[C@@H]2O)[C@@H](C)C1 (single isomer, unassigned) [Ex-4.243, (3S,4S)(2S) or (3R,4R)(2S) 4-[4-{2-[(5-chloro-1-cyclopropyl-1H-pyrazol-4-yl)amino]-6-methylquinazolin-7-yl}-2-methylpiperidin-1-yl]oxolan-3-ol] | >9.20 |
| CO[C@H]1COC[C@H]1N1CC[C@@H](c2cc3nc(Nc4cnn(C5CC5(F)F)c4Cl)ncc3cc2C)[C@H](F)C1 (single isomer, unassigned) [Ex-4.244, (R)(3S,4S)(3S,4S) or (R)(3S,4S)(3R,4R) or (R)(3R,4R)(3S,4S) or (R)(3R,4R)(3R,4R) or (S)(3S,4S)(3S,4S) or (S)(3S,4S)(3R,4R) or (S)(3R,4R)(3S,4S) or (S)(3R,4R)(3R,4R) N-[5-chloro-1-(2,2-difluorocyclopropyl)-1H-pyrazol-4-yl]-7-[3-fluoro-1-(4-methoxyoxolan-3-yl)piperidin-4-yl]-6-methylquinazolin-2-amine] | >9.20 |
| Cn1nc(C(C)(C)C)cc1Nc1ncc2cc(Cl)c([C@@H]3CCN([C@]4(C)COC[C@@H]4O)C[C@H]3F)cc2n1 (single isomer, unassigned) [Ex-4.245, (3S,4S)(3S,4S) or (3S,4S)(3R,4R) or (3R,4R)(3S,4S) or (3R,4R)(3R,4R) 4-(4-{2-[(3-tert-butyl-1-methyl-1H-pyrazol-5-yl)amino]-6-chloroquinazolin-7-yl}-3-fluoropiperidin-1-yl)-4-methyloxolan-3-ol] | >9.20 |
| CO[C@@H]1COC[C@@H]1N1CC[C@@H](c2cc3nc(Nc4cnn(C5CC5(F)F)c4Cl)ncc3cc2C)[C@H](F)C1 (single isomer, unassigned) [Ex-4.246, (R)(3S,4S)(3S,4S) or (R)(3S,4S)(3R,4R) or (R)(3R,4R)(3S,4S) or (R)(3R,4R)(3R,4R) or (S)(3S,4S)(3S,4S) or (S)(3S,4S)(3R,4R) or (S)(3R,4R)(3S,4S) or (S)(3R,4R)(3R,4R) N-[5-chloro-1-(2,2-difluorocyclopropyl)-1H-pyrazol-4-yl]-7-[3-fluoro-1-(4-methoxyoxolan-3-yl)piperidin-4-yl]-6-methylquinazolin-2-amine] | 8.22 |
| C[C@]1(N2CC[C@@H](c3cc4nc(Nc5cnn(C6CC6)c5Cl)ncc4cc3Cl)[C@H](F)C2)COC[C@H]1O (single isomer, unassigned) [Ex-4.247, (3S,4S)(3S,4S) or (3S,4S)(3R,4R) or (3R,4R)(3S,4S) or (3R,4R)(3R,4R) 4-(4-{6-chloro-2-[(5-chloro-1-cyclopropyl-1H-pyrazol-4-yl)amino]quinazolin-7-yl}-3-fluoropiperidin-1-yl)-4-methyloxolan-3-ol] | >9.20 |
| CO[C@H]1COC[C@H]1N1CC[C@@H](c2cc3nc(Nc4cnn(C5CC5)c4Cl)ncc3cc2C)[C@H](F)C1 (single isomer, unassigned) [Ex-4.248, (3S,4S)(3S,4S) or (3S,4S)(3R,4R) or (3R,4R)(3S,4S) or (3R,4R)(3R,4R)N-(5-chloro-1-cyclopropyl-1H-pyrazol-4-yl)-7-[3-fluoro-1-(4-methoxyoxolan-3-yl)piperidin-4-yl]-6-methylquinazolin-2-amine] | >9.20 |
| C[C@@]1(N2CC[C@@H](c3cc4nc(Nc5cnn(C6CC6)c5Cl)ncc4cc3Cl)[C@H](F)C2)COC[C@@H]1O (single isomer, unassigned) [Ex-4.249, (3S,4S)(3S,4S) or (3S,4S)(3R,4R) or (3R,4R)(3S,4S) or (3R,4R)(3R,4R) 4-(4-{6-chloro-2-[(5-chloro-1-cyclopropyl-1H-pyrazol-4-yl)amino]quinazolin-7-yl}-3-fluoropiperidin-1-yl)-4-methyloxolan-3-ol] | >9.20 |
| CO[C@H]1COC[C@H]1N1CC[C@@H](c2cc3nc(Nc4cnn(C5CC5)c4Cl)ncc3cc2C)[C@H](F)C1 (single isomer, unassigned) [Ex-4.250, (3S,4S)(3S,4S) or (3S,4S)(3R,4R) or (3R,4R)(3S,4S) or (3R,4R)(3R,4R) N-(5-chloro-1-cyclopropyl-1H-pyrazol-4-yl)-7-[3-fluoro-1-(4-methoxyoxolan-3-yl)piperidin-4-yl]-6-methylquinazolin-2-amine] | 8.22 |
| Cn1nc(C(F)(F)F)cc1Nc1ncc2cc(Cl)c([C@@H]3CCN([C@]4(C)COC[C@@H]4O)C[C@H]3F)cc2n1 (single isomer, unassigned) [Ex-4.251, (3S,4S)(3S,4S) or (3S,4S)(3R,4R) or (3R,4R)(3S,4S) or (3R,4R)(3R,4R) 4-[4-(6-chloro-2-{[1-methyl-3-(trifluoromethyl)-1H-pyrazol-5-yl]amino}quinazolin-7-yl)-3-fluoropiperidin-1-yl]-4-methyloxolan-3-ol] | 9.05 |
| Cn1nc(C(F)(F)F)cc1Nc1ncc2cc(Cl)c([C@@H]3CCN([C@@]4(C)COC[C@H]4O)C[C@H]3F)cc2n1 (single isomer, unassigned) [Ex-4.252, (3S,4S)(3S,4S) or (3S,4S)(3R,4R) or (3R,4R)(3S,4S) or (3R,4R)(3R,4R) 4-[4-(6-chloro-2-{[1-methyl-3-(trifluoromethyl)-1H-pyrazol-5-yl]amino}quinazolin-7-yl)-3-fluoropiperidin-1-yl]-4-methyloxolan-3-ol] | 6.61 |
| Cn1ncc(Nc2ncc3cc(Cl)c([C@@H]4CCN([C@@]5(C)COC[C@H]5O)C[C@H]4F)cc3n2)c1C(F)(F)F (single isomer, unassigned) [Ex-4.253, (3S,4S)(3S,4S) or (3S,4S)(3R,4R) or (3R,4R)(3S,4S) or (3R,4R)(3R,4R) 4-[4-(6-chloro-2-{[1-methyl-5-(trifluoromethyl)-1H-pyrazol-4-yl]amino}quinazolin-7-yl)-3-fluoropiperidin-1-yl]-4-methyloxolan-3-ol] | >9.20 |
| Cn1ncc(Nc2ncc3cc(Cl)c([C@@H]4CCN([C@]5(C)COC[C@@H]5O)C[C@H]4F)cc3n2)c1C(F)(F)F (single isomer, unassigned) [Ex-4.254, (3S,4S)(3S,4S) or (3S,4S)(3R,4R) or (3R,4R)(3S,4S) or (3R,4R)(3R,4R) 4-[4-(6-chloro-2-{[1-methyl-5-(trifluoromethyl)-1H-pyrazol-4-yl]amino}quinazolin-7-yl)-3-fluoropiperidin-1-yl]-4-methyloxolan-3-ol] | >9.20 |
| Cc1c(Nc2ncc3cc(Cl)c([C@@H]4CCN([C@@H]5COC[C@@H]5O)C[C@H]4F)cc3n2)cnn1C (single isomer, unassigned) [Ex-4.255, (3S,4S)(3S,4S) or (3S,4S)(3R,4R) or (3R,4R)(3S,4S) or (3R,4R)(3R,4R) 4-(4-(6-chloro-2-((1,5-dimethyl-1H-pyrazol-4-yl)amino)quinazolin-7-yl)-3-fluoropiperidin-1-yl)tetrahydrofuran-3-ol] | >9.20 |
| Cc1c(Nc2ncc3cc(Cl)c([C@@H]4CCN([C@H]5COC[C@H]5O)C[C@H]4F)cc3n2)cnn1C (single isomer, unassigned) [Ex-4.256, (3S,4S)(3S,4S) or (3S,4S)(3R,4R) or (3R,4R)(3S,4S) or (3R,4R)(3R,4R) 4-(4-(6-chloro-2-((1,5-dimethyl-1H-pyrazol-4-yl)amino)quinazolin-7-yl)-3-fluoropiperidin-1-yl)tetrahydrofuran-3-ol] | >9.20 |
| Cc1cc2cnc(Nc3cnn(C)c3C)nc2cc1[C@@H]1CCN([C@@H]2COC[C@@H]2O)C[C@H]1F (single isomer, unassigned) [Ex-4.257, (3S,4S)(3S,4S) or (3S,4S)(3R,4R) or (3R,4R)(3S,4S) or (3R,4R)(3R,4R) 4-(4-(2-((1,5-dimethyl-1H-pyrazol-4-yl)amino)-6-methylquinazolin-7-yl)-3-fluoropiperidin-1-yl)tetrahydrofuran-3-ol] | >9.20 |
| Cc1cc2cnc(Nc3cnn(C)c3C)nc2cc1[C@@H]1CCN([C@H]2COC[C@H]2O)C[C@H]1F (single isomer, unassigned) [Ex-4.258, (3S,4S)(3S,4S) or (3S,4S)(3R,4R) or (3R,4R)(3S,4S) or (3R,4R)(3R,4R) 4-(4-(2-((1,5-dimethyl-1H-pyrazol-4-yl)amino)-6-methylquinazolin-7-yl)-3-fluoropiperidin-1-yl)tetrahydrofuran-3-ol] | 7.39 |
